These results are taken from patent US9220719B2, “Single dose oral formulations and methods for treatment of cats with ectoparasiticidal spinosad” (priority 2012, dated 2015).

The nature of this data set: Pharmacokinetics of spinosad API capsules and spinosad tablets after oral administration to cats (Example 2). Conditions: cats, oral; for mean normalized AUC0-∞ / mean normalized Cmax: plasma, normalized to dose. How it is done: The plasma concentrations and resulting pharmacokinetics of spinosad tablets when administered orally to adult cats in the fed or fasted state can be evaluated. Twenty four cats (12 male and 12 female) can be dosed with approximately 80 mg/kg spinosad, as either API in gelatin capsules or as spinosad formulated chewable tablets. Serial blood samples can be collected through 672 hours (28 days) after dose administration. […] Samples can be immediately mixed by inversion several times and stored on ice until centrifuged. The plasma can be collected, split into two approximately equal aliquots and stored frozen at approximately −70° C. until shipped for analysis, and/or analyzed by a validated LC/MS/MS assay.

Setting [1] is: group 1: 80 mg/kg spinosad API in gel capsules, fed.
Setting [2] is: group 2: 80 mg/kg spinosad tablets, fed.
The mark [3] stands for this setting: group 3: 80 mg/kg spinosad tablets, fasted.

Regarding spinosyn A, under setting [1], the “mean Tmax” value came out at 12 ± 5.2 h, the “mean elimination half-life (t1/2)” value is 327 ± 84.3 h, the “mean normalized AUC0-∞” value was 4,460±1410 hr*ng*kg/mg*mL and the “mean normalized Cmax” value stood at 60 ± 18 ng·kg/mg/mL. For the same substance, under setting [2], the “mean Tmax” value was 10 ± 3.0 h, the “mean elimination half-life (t1/2)” value turned out to be 277 ± 75.5 h, the “mean normalized AUC0-∞” value was 4,480±1180 hr*ng*kg/mg*mL and the “mean normalized Cmax” value was 46 ± 14 ng·kg/mg/mL. Under setting [3], the “mean Tmax” value was 6.0 ± 3.7 h, the “mean elimination half-life (t1/2)” value came out at 193 ± 60.5 h, the “mean normalized AUC0-∞” value came out at 781 ± 406 ng·kg·h/mg/mL and the “mean normalized Cmax” value amounted to 11 ± 6.6 ng·kg/mg/mL.
